Assay results taken from patent US20250332178A1, “METHODS OF TREATING MYCOBACTERIAL INFECTIONS USING TETRACYCLINE COMPOUNDS” (priority 2018, published 2025).
In brackets after ≈: the same amount, converted by molar mass. Where two headings read alike, the source gives them in different places.

Legend:
M. abscessus complex = assay: MIC (CLSI broth dilution), RGM isolates; assay type: cell-based; settings: Mycobacteroides abscessus, read-out: MIC
M. intracellulare = assay: MIC (CLSI broth dilution), slow-growing NTM isolates; assay type: cell-based; settings: Mycobacterium intracellulare, read-out: MIC
M. fortuitum group = assay: MIC (CLSI broth dilution), RGM isolates; assay type: cell-based; settings: Mycolicibacterium fortuitum, read-out: MIC
M. smegmatis group = assay: MIC (CLSI broth dilution), RGM isolates; assay type: cell-based; settings: Mycolicibacterium smegmatis, read-out: MIC
[1] = test system: rapid-growing mycobacteria (RGM) isolates; assay: MIC (CLSI broth dilution), all RGM isolates; assay type: cell-based, nontuberculous mycobacteria; settings: all 50 RGM isolates
M. chimaera = assay: MIC (CLSI broth dilution), slow-growing NTM isolates; assay type: cell-based; settings: read-out: MIC
M. chelonae = assay: MIC (CLSI broth dilution), RGM isolates; assay type: cell-based; settings: Mycobacteroides chelonae, read-out: MIC
[2] = test system: slow-growing NTM isolates; assay: MIC (CLSI broth dilution), all slow-growing NTM isolates; assay type: cell-based, nontuberculous mycobacteria; settings: all slow-growing NTM isolates
M. arupense = assay: MIC (CLSI broth dilution), slow-growing NTM isolates; assay type: cell-based; settings: isolate 11, Other; read-out: MIC
[3] = test system: Bacille Calmette Guerin (BCG); assay type: cell-based, Mycobacterium bovis; settings: disk: 30 μg of linezolid
M. mucogenium group = assay: MIC (CLSI broth dilution), RGM isolates; assay type: cell-based; settings: read-out: MIC
M. immunogenum group = assay: MIC (CLSI broth dilution), RGM isolates; assay type: cell-based; settings: M. immunogenum, read-out: MIC
M. simiae = assay: MIC (CLSI broth dilution), slow-growing NTM isolates; assay type: cell-based; settings: read-out: MIC
M. avium = assay: as above; assay type: cell-based; settings: Mycobacterium avium, read-out: MIC

## CC(=O)NC[C@H]1CN(c2ccc(N3CCOCC3)c(F)c2)C(=O)O1 [linezolid]
M. abscessus complex; isolate 1, M. abscessus complex, erm gene type MAB30
  MIC: 16 µg/mL (≈ 47.4 µM)
M. abscessus complex; isolate 2, M. abscessus complex, erm gene type MAB30
  MIC: 16 µg/mL (≈ 47.4 µM)
M. abscessus complex; isolate 3, M. abscessus complex, erm gene type MAB30
  MIC: 32 µg/mL (≈ 94.9 µM)
M. abscessus complex; isolate 4, M. abscessus complex, erm gene type massiliense
  MIC: 16 µg/mL (≈ 47.4 µM)
M. abscessus complex; isolate 5, M. abscessus complex, erm gene type massiliense/subsp. abs hybrid
  MIC: 4 µg/mL (≈ 11.9 µM)
M. abscessus complex; isolate 6, M. abscessus complex, erm gene type Type 1 abscessus
  MIC: 32 µg/mL (≈ 94.9 µM)
M. abscessus complex; isolate 7, M. abscessus complex, erm gene type Type 1 abscessus
  MIC: 16 µg/mL (≈ 47.4 µM)
M. abscessus complex; isolate 8, M. abscessus complex, erm gene type Type 1 abscessus
  MIC: 16 µg/mL (≈ 47.4 µM)
M. abscessus complex; isolate 9, M. abscessus complex, erm gene type Type 1 abscessus
  MIC: 32 µg/mL (≈ 94.9 µM)
M. abscessus complex; isolate 10, M. abscessus complex, erm gene type Type 1 abscessus
  MIC: 16 µg/mL (≈ 47.4 µM)
M. abscessus complex; isolate 11, M. abscessus complex, erm gene type Type 6 abscessus
  MIC: 8 µg/mL (≈ 23.7 µM)
M. abscessus complex; isolate 12, M. abscessus complex, erm gene type Type 6 abscessus
  MIC: 8 µg/mL (≈ 23.7 µM)
M. abscessus complex; isolate 13, M. abscessus complex, erm gene type Type 6 abscessus
  MIC: 16 µg/mL (≈ 47.4 µM)
M. abscessus complex; isolate 14, M. abscessus complex, erm gene type Type 6 abscessus
  MIC: ≤ 2 µg/mL
M. abscessus complex; isolate 15, M. abscessus complex, erm gene type Type 7 abscessus
  MIC: 16 µg/mL (≈ 47.4 µM)
M. abscessus complex; isolate 16, M. abscessus complex, erm gene type Type 7 abscessus
  MIC: ≤ 2 µg/mL
M. abscessus complex; isolate 17, M. abscessus complex, erm gene type Type 8 abscessus
  MIC: 16 µg/mL (≈ 47.4 µM)
M. intracellulare; isolate 6, MAC
  MIC: 32 µg/mL (≈ 94.9 µM)
M. intracellulare; isolate 7, MAC
  MIC: 16 µg/mL (≈ 47.4 µM)
M. intracellulare; isolate 8, MAC
  MIC: 32 µg/mL (≈ 94.9 µM)
M. intracellulare; isolate 9, MAC
  MIC: 32 µg/mL (≈ 94.9 µM)
M. intracellulare; isolate 10, MAC
  MIC: > 32 µg/mL
M. fortuitum group; isolate 23, M. fortuitum group, M. fortuitum
  MIC: ≤ 2 µg/mL
M. fortuitum group; isolate 24, M. fortuitum group, M. fortuitum
  MIC: 4 µg/mL (≈ 11.9 µM)
M. fortuitum group; isolate 25, M. fortuitum group, M. fortuitum
  MIC: 4 µg/mL (≈ 11.9 µM)
M. fortuitum group; isolate 26, M. fortuitum group, M. porcinum
  MIC: ≤ 2 µg/mL
M. fortuitum group; isolate 27, M. fortuitum group, M. porcinum
  MIC: 4 µg/mL (≈ 11.9 µM)
M. fortuitum group; isolate 28, M. fortuitum group, M. porcinum/M. boenickei
  MIC: ≤ 2 µg/mL
M. fortuitum group; isolate 29, M. fortuitum group, M. porcinum/M. boenickei
  MIC: 4 µg/mL (≈ 11.9 µM)
M. fortuitum group; isolate 30, M. fortuitum group, M. porcinum/M. boenickei
  MIC: ≤ 2 µg/mL
M. fortuitum group; isolate 31, M. fortuitum group, M. senegalense
  MIC: ≤ 2 µg/mL
M. fortuitum group; isolate 32, M. fortuitum group, M. senegalense
  MIC: ≤ 2 µg/mL
M. fortuitum group; isolate 33, M. fortuitum group, M. senegalense
  MIC: ≤ 2 µg/mL
M. fortuitum group; isolate 34, M. fortuitum group, M. senegalense
  MIC: ≤ 2 µg/mL
M. smegmatis group; isolate 49, M. smegmatis group, M. goodii
  MIC: ≤ 2 µg/mL
M. smegmatis group; isolate 50, M. smegmatis group, M. wolinskyi
  MIC: 4 µg/mL (≈ 11.9 µM)
[1]; read-out: MIC50
  MIC50: 4 µg/mL (≈ 11.9 µM)
[1]; read-out: MIC90
  MIC90: 32 µg/mL (≈ 94.9 µM)
M. chimaera; isolate 4, MAC
  MIC: 16 µg/mL (≈ 47.4 µM)
M. chimaera; isolate 5, MAC
  MIC: 32 µg/mL (≈ 94.9 µM)
M. chelonae; isolate 18, M. chelonae
  MIC: 16 µg/mL (≈ 47.4 µM)
M. chelonae; isolate 19, M. chelonae
  MIC: 8 µg/mL (≈ 23.7 µM)
M. chelonae; isolate 20, M. chelonae
  MIC: 4 µg/mL (≈ 11.9 µM)
M. chelonae; isolate 21, M. chelonae
  MIC: 16 µg/mL (≈ 47.4 µM)
M. chelonae; isolate 22, M. chelonae
  MIC: 16 µg/mL (≈ 47.4 µM)
[2]; read-out: MIC50
  MIC50: 32 µg/mL (≈ 94.9 µM)
[2]; read-out: MIC90
  MIC90: > 32 µg/mL
M. arupense
  MIC: 32 µg/mL (≈ 94.9 µM)
[3]
  Results/Observations (growth): No growth on plate
M. mucogenium group; isolate 39, M. mucogenicum group, M. mucogenicum
  MIC: ≤ 2 µg/mL
M. mucogenium group; isolate 40, M. mucogenicum group, M. mucogenicum
  MIC: ≤ 2 µg/mL
M. mucogenium group; isolate 41, M. mucogenicum group, M. mucogenicum
  MIC: ≤ 2 µg/mL
M. mucogenium group; isolate 42, M. mucogenicum group, M. mucogenicum
  MIC: ≤ 2 µg/mL
M. mucogenium group; isolate 43, M. mucogenicum group, M. phocaicum
  MIC: ≤ 2 µg/mL
M. mucogenium group; isolate 44, M. mucogenicum group, M. phocaicum
  MIC: ≤ 2 µg/mL
M. mucogenium group; isolate 45, M. mucogenicum group, M. phocaicum
  MIC: ≤ 2 µg/mL
M. mucogenium group; isolate 46, M. mucogenicum group, M. phocaicum
  MIC: ≤ 2 µg/mL
M. mucogenium group; isolate 47, M. mucogenicum group, M. phocaicum
  MIC: 4 µg/mL (≈ 11.9 µM)
M. mucogenium group; isolate 48, M. mucogenicum group, M. phocaicum
  MIC: ≤ 2 µg/mL
M. immunogenum group; isolate 35, M. immunogenum group
  MIC: 32 µg/mL (≈ 94.9 µM)
M. immunogenum group; isolate 36, M. immunogenum group
  MIC: 8 µg/mL (≈ 23.7 µM)
M. immunogenum group; isolate 37, M. immunogenum group
  MIC: 32 µg/mL (≈ 94.9 µM)
M. immunogenum group; isolate 38, M. immunogenum group
  MIC: 32 µg/mL (≈ 94.9 µM)
M. simiae; isolate 13, Other
  MIC: > 32 µg/mL
M. simiae; isolate 14, Other
  MIC: 32 µg/mL (≈ 94.9 µM)
M. simiae; isolate 15, Other
  MIC: > 32 µg/mL
M. avium; isolate 1, MAC
  MIC: 32 µg/mL (≈ 94.9 µM)
M. avium; isolate 2, MAC
  MIC: 32 µg/mL (≈ 94.9 µM)
M. avium; isolate 3, MAC
  MIC: > 32 µg/mL
